Values joined by “and” are separate entries in the source; they are usually repeats but may differ in a detail not shown here. Equal entries are not always repeated.
Molecular target: T1, human P2X4 (Homo sapiens, UniProt Q99571)
T1 sequence (Q99571 1-388): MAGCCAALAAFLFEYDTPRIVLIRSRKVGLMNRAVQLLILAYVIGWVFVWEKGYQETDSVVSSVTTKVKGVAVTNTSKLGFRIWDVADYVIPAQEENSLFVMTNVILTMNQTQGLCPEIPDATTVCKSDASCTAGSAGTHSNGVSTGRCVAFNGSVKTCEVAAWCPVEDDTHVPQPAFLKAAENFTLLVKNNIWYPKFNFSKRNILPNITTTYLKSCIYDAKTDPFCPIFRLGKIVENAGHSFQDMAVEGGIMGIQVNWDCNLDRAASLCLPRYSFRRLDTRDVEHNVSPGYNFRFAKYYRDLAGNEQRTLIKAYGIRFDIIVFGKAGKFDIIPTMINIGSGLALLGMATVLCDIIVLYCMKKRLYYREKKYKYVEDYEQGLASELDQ
Assay: Human P2X4 HEK Cell FLIPR Assay
Assay type: cell-based
Conditions: agonist Bz-ATP at EC80; for Emax: HEK293, HEK293 cells, percentage of maximal inhibition, read-out: Human P2X4 HEK Cells (FLIPR Assay) avg Efficacy [%]; for IC50: HEK293 cells, individual values listed where some fall outside detection range
Outline: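 Calcium flux read by FLIPR for 120 sec after Bz-ATP challenge at EC80 (established each assay day), following 30 min room-temperature compound preincubation in dye-loaded stable human P2X4 HEK293 cells. Peak RFU over basal normalized to agonist control; IC50, maximal inhibition and Hill coefficient from triplicate means.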

| SMILES | Emax [%] | IC50 |
| --- | --- | --- |
| NS(=O)(=O)c1cc(NC(=O)Cc2ccccc2F)ccc1-n1ncc(C(F)(F)F)n1 [Example 412, 2-(2-Fluorophenyl)-N-{3-sulfamoyl-4-[4-(trifluoromethyl)-2H-1,2,3-triazol-2-yl]phenyl}acetamide] | 68 | 1590 nM |
| NS(=O)(=O)c1cc(NC(=O)Cc2ccc(Cl)cc2Cl)ccc1-n1ncc(C(F)(F)F)n1 [Example 416, 2-(2,4-Dichlorophenyl)-N-{3-sulfamoyl-4-[4-(trifluoromethyl)-2H-1,2,3-triazol-2-yl]phenyl}acetamide] | 51 | 8.3 µM and 17.8 µM and > 25 µM (2×) |
| NS(=O)(=O)c1cc(NC(=O)Cc2ccc(Cl)cc2Cl)ccc1-n1cc(C(F)(F)F)nn1 [Example 417, 2-(2,4-Dichlorophenyl)-N-{3-sulfamoyl-4-[4-(trifluoromethyl)-1H-1,2,3-triazol-1-yl]phenyl}acetamide] | 68 | 51 nM |
| NS(=O)(=O)c1cc(NC(=O)Cc2ccccc2Cl)ccc1-c1ccsn1 [Example 419, 2-(2-Chlorophenyl)-N-[3-sulfamoyl-4-(1,2-thiazol-3-yl)phenyl]acetamide] | 89 | 274 nM |
| COc1nc(-c2ccc(NC(=O)Cc3ccccc3Cl)cc2S(N)(=O)=O)cs1 [Example 421, 2-(2-Chlorophenyl)-N-[4-(2-methoxy-1,3-thiazol-4-yl)-3-sulfamoylphenyl]acetamide] | 86 | 680 nM |
| Cc1csc(-c2ccc(NC(=O)Cc3ccccc3Cl)cc2S(N)(=O)=O)n1 [Example 425, 2-(2-Chlorophenyl)-N-[4-(4-methyl-1,3-thiazol-2-yl)-3-sulfamoylphenyl]acetamide] | 74 | 50 nM |
| NS(=O)(=O)c1cc(NC(=O)Cc2ccccc2Cl)ccc1-c1nccs1 [Example 427, 2-(2-Chlorophenyl)-N-[3-sulfamoyl-4-(1,3-thiazol-2-yl)phenyl]acetamide] | 65 | 72 nM |
| N#Cc1csc(-c2ccc(NC(=O)Cc3ccccc3Cl)cc2S(N)(=O)=O)n1 [Example 428, 2-(2-Chlorophenyl)-N-[4-(4-cyano-1,3-thiazol-2-yl)-3-sulfamoylphenyl]acetamide] | 57 | 27 nM |
| NS(=O)(=O)c1cc(NC(=O)Cc2ccccc2Cl)ccc1-c1cnc(C(F)F)s1 [Example 429, 2-(2-Chlorophenyl)-N-{4-[2-(difluoromethyl)-1,3-thiazol-5-yl]-3-sulfamoylphenyl}acetamide] | 91 | 108 nM |
| CC(C)(O)c1ncc(-c2ccc(NC(=O)Cc3ccccc3Cl)cc2S(N)(=O)=O)s1 [Example 435, 2-(2-Chlorophenyl)-N-{4-[2-(2-hydroxypropan-2-yl)-1,3-thiazol-5-yl]-3-sulfamoylphenyl}acetamide] | 77 | 588 nM |
| NS(=O)(=O)c1cc(NC(=O)Cc2ccccc2Cl)ccc1-c1cscn1 [Example 437, 2-(2-Chlorophenyl)-N-[3-sulfamoyl-4-(1,3-thiazol-4-yl)phenyl]acetamide] | 53 | 39 nM |

Continued, values first:

| Emax [%] | IC50 | SMILES |
| --- | --- | --- |
| 89 | 74 nM | NS(=O)(=O)c1cc(NC(=O)Cc2ccccc2F)ccc1-n1cc(C(F)(F)F)nn1 [Example 413, 2-(2-Fluorophenyl)-N-{3-sulfamoyl-4-[4-(trifluoromethyl)-1H-1,2,3-triazol-1-yl]phenyl}acetamide] |
| 20 | > 25000 nM | NS(=O)(=O)c1cc(NC(=O)Cc2ccc(C(F)(F)F)cc2Cl)ccc1-n1ncc(C(F)(F)F)n1 [Example 414, 2-[2-Chloro-4-(trifluoromethyl)phenyl]-N-{3-sulfamoyl-4-[4-(trifluoromethyl)-2H-1,2,3-triazol-2-yl]phenyl}acetamide] |
| 69 | 200 nM | NS(=O)(=O)c1cc(NC(=O)Cc2ccc(C(F)(F)F)cc2Cl)ccc1-n1cc(C(F)(F)F)nn1 [Example 415, 2-[2-Chloro-4-(trifluoromethyl)phenyl]-N-{3-sulfamoyl-4-[4-(trifluoromethyl)-1H-1,2,3-triazol-1-yl]phenyl}acetamide] |
| 91 | 15 nM | NS(=O)(=O)c1cc(NC(=O)Cc2ccccc2Cl)ccc1-c1cncs1 [Example 418, 2-(2-Chlorophenyl)-N-[3-sulfamoyl-4-(1,3-thiazol-5-yl)phenyl]acetamide] |
| 75 | 69 nM | Cc1nc(-c2ccc(NC(=O)Cc3ccccc3Cl)cc2S(N)(=O)=O)cs1 [Example 420, 2-(2-Chlorophenyl)-N-[4-(2-methyl-1,3-thiazol-4-yl)-3-sulfamoylphenyl]acetamide] |
| 90 | 46 nM | COc1ncc(-c2ccc(NC(=O)Cc3ccccc3Cl)cc2S(N)(=O)=O)s1 [Example 422, 2-(2-Chlorophenyl)-N-[4-(2-methoxy-1,3-thiazol-5-yl)-3-sulfamoylphenyl]acetamide] |
| 86 | 53 nM | Cc1ncc(-c2ccc(NC(=O)Cc3ccccc3Cl)cc2S(N)(=O)=O)s1 [Example 423, 2-(2-Chlorophenyl)-N-[4-(2-methyl-1,3-thiazol-5-yl)-3-sulfamoylphenyl]acetamide] |
| 88 | 29 nM | Cc1cc(-c2ccc(NC(=O)Cc3ccccc3Cl)cc2S(N)(=O)=O)sn1 [Example 424, 2-(2-Chlorophenyl)-N-[4-(3-methyl-1,2-thiazol-5-yl)-3-sulfamoylphenyl]acetamide] |
| 86 | 24 nM | NS(=O)(=O)c1cc(NC(=O)Cc2ccccc2Cl)ccc1-c1cnsc1 [Example 426, 2-(2-Chlorophenyl)-N-[3-sulfamoyl-4-(1,2-thiazol-4-yl)phenyl]acetamide] |
| 87 | 86 nM | NS(=O)(=O)c1cc(NC(=O)Cc2ccccc2Cl)ccc1-c1cnc(C2CC2)s1 [Example 430, 2-(2-Chlorophenyl)-N-[4-(2-cyclopropyl-1,3-thiazol-5-yl)-3-sulfamoylphenyl]acetamide] |
| 83 | 2880 nM | NS(=O)(=O)c1cc(NC(=O)Cc2ccccc2Cl)ccc1-c1csc(C2CC2)n1 [Example 431, 2-(2-Chlorophenyl)-N-[4-(2-cyclopropyl-1,3-thiazol-4-yl)-3-sulfamoylphenyl]acetamide] |
| 92 | 597 nM | Cc1coc(-c2ccc(NC(=O)Cc3ccccc3Cl)cc2S(N)(=O)=O)n1 [Example 432, 2-(2-Chlorophenyl)-N-[4-(4-methyl-1,3-oxazol-2-yl)-3-sulfamoylphenyl]acetamide] |
| 28 | > 25000 nM | NS(=O)(=O)c1cc(NC(=O)Cc2ccccc2Cl)ccc1-c1csc(C(F)(F)F)n1 [Example 433, 2-(2-Chlorophenyl)-N-{3-sulfamoyl-4-[2-(trifluoromethyl)-1,3-thiazol-4-yl]phenyl}acetamide] |
| 50 | 17800 nM and > 25000 nM | NS(=O)(=O)c1cc(NC(=O)Cc2ccccc2Cl)ccc1-c1nc(C(F)(F)F)cs1 [Example 434, 2-(2-Chlorophenyl)-N-{3-sulfamoyl-4-[4-(trifluoromethyl)-1,3-thiazol-2-yl]phenyl}acetamide] |
| 56 | 12500 nM | CC(C)(O)c1nc(-c2ccc(NC(=O)Cc3ccccc3Cl)cc2S(N)(=O)=O)cs1 [Example 436, 2-(2-Chlorophenyl)-N-{4-[2-(2-hydroxypropan-2-yl)-1,3-thiazol-4-yl]-3-sulfamoylphenyl}acetamide] |

From patent US11524938B2, “Aromatic sulfonamide derivatives” (Bayer Pharma Aktiengesellschaft, priority 2016, dated 2022)
